Values after ≈ are worked out from the molar mass of the structure shown. Read-outs that look alike come from different tables or passages of the source.
Assays:
C. glabrata = assay: Checkerboard FIC assay in combination with fluconazole (MIC alone and in combination, FICI); format: cell-based, Candida glabrata; conditions: for FICI of combination resulting in fluconazole MIC of: 2 ug/mL / FICI of combination resulting in fluconazole MIC of: 4 ug/mL / FICI of combination resulting in fluconazole MIC of: 8 ug/mL: FICI calculated using a fluconazole MIC of 16 μg/mL; for FICI of combination resulting in fluconazole MIC of: 2 ug/mL (value in parenthesis) / FICI of combination resulting in fluconazole MIC of: 4 ug/mL (value in parenthesis) / FICI of combination resulting in fluconazole MIC of: 8 ug/mL (value in parenthesis): FICI using a fluconazole MIC of 128 μg/mL; for MIC: Nakaseomyces glabratus; for Multiple of compound MIC to synergize fluconazole MIC to 2 ug/mL / Multiple of compound MIC to synergize fluconazole MIC to 4 ug/mL / Multiple of compound MIC to synergize fluconazole MIC to 8 ug/mL: concentration in combination as multiple of the compound's MIC alone; for Multiple of compound MIC to synergize fluconazole MIC to 2 ug/mL: fluconazole MIC 2 ug/mL; for Multiple of compound MIC to synergize fluconazole MIC to 4 ug/mL: fluconazole MIC 4 ug/mL; for Multiple of compound MIC to synergize fluconazole MIC to 8 ug/mL: fluconazole MIC 8 ug/mL; for Concentration of Methylgene compound to synergize fluconazole MIC to 2 ug/mL / Concentration of Methylgene compound to synergize fluconazole MIC to 4 ug/mL / Concentration of Methylgene compound to synergize fluconazole MIC to 8 ug/mL: in combination with fluconazole; for Concentration of Methylgene compound to synergize fluconazole MIC to 2 ug/mL: fluconazole MIC lowered to 2 ug/mL; for Concentration of Methylgene compound to synergize fluconazole MIC to 4 ug/mL: fluconazole MIC lowered to 4 ug/mL; for Concentration of Methylgene compound to synergize fluconazole MIC to 8 ug/mL: fluconazole MIC lowered to 8 ug/mL
Method in brief: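 C. glabrata was tested by CLSI broth microdilution checkerboard, crossing 2-fold dilutions of compound with 2-fold dilutions of fluconazole. The medium was RPMI with 0.165 M MOPS at pH 7.0, inoculated from a 0.5 McFarland suspension diluted 1:100, then incubated about 48 h at 35 °C. Single-agent MICs gave the FIC and FICI values.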

Candida glabrata = assay: Minimal Inhibitory Concentration (MIC) assay, broth microdilution per CLSI; format: cell-based; conditions: Nakaseomyces glabratus, read-out: Minimum Inhibitory Concentrations against Yeast Isolates, Candida glabrata;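 also: two read times 24 hr and 48 hr of incubation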
Method in brief: (§1)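 Following CLSI procedure, compounds dissolved in DMSO on the assay day are diluted twofold and added to MOPS-buffered RPMI at pH 7.0. Saline suspensions of the yeasts, matched to 0.5 McFarland, are diluted 1:100 and inoculated, then plates incubate at 35° C for about 24-48 hr.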

Candida parapsilosis = assay: as above; format: cell-based; conditions: Lodderomyces parapsilosis, read-out: Minimum Inhibitory Concentrations against Yeast Isolates, Candida parapsilosis;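 also: two read times 24 hr and 48 hr of incubation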
Method in brief: as §1

Candida albicans = assay: as above; format: cell-based; conditions: Candida albicans, read-out: Minimum Inhibitory Concentrations against Yeast Isolates, Candida albicans;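 also: two read times 24 hr and 48 hr of incubation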
Method in brief: as §1

[1] = MIC of the example compound alone against C. glabrata in the checkerboard assay, approximately 48 hr, read-out: Methylgene MIC
[2] = test compound alone, C. glabrata, approx. 48 hr at 35° C., read-out: Compound MIC
[3] = 24 hr reading (first value of cell 24 hr/48 hr)
[4] = 48 hr reading (second value of cell 24 hr/48 hr)

Row | Compound | FICI of combination resulting in fluconazole MIC of: 2 ug/mL (C. glabrata; C. glabrata) | FICI of combination resulting in fluconazole MIC of: 4 ug/mL (C. glabrata; C. glabrata) | FICI of combination resulting in fluconazole MIC of: 8 ug/mL (C. glabrata; C. glabrata) | FICI of combination resulting in fluconazole MIC of: 2 ug/mL (value in parenthesis) (C. glabrata; C. glabrata) | FICI of combination resulting in fluconazole MIC of: 4 ug/mL (value in parenthesis) (C. glabrata; C. glabrata) | FICI of combination resulting in fluconazole MIC of: 8 ug/mL (value in parenthesis) (C. glabrata; C. glabrata) | MIC (C. glabrata; [1]) | MIC (C. glabrata; [2]) | Multiple of compound MIC to synergize fluconazole MIC to 2 ug/mL (C. glabrata) | Multiple of compound MIC to synergize fluconazole MIC to 4 ug/mL (C. glabrata) | Multiple of compound MIC to synergize fluconazole MIC to 8 ug/mL (C. glabrata) | Concentration of Methylgene compound to synergize fluconazole MIC to 2 ug/mL (C. glabrata; C. glabrata) | Concentration of Methylgene compound to synergize fluconazole MIC to 4 ug/mL (C. glabrata; C. glabrata) | Concentration of Methylgene compound to synergize fluconazole MIC to 8 ug/mL (C. glabrata; C. glabrata) | MIC (Candida glabrata; [3]) | MIC (Candida glabrata; [4]) | MIC (Candida parapsilosis; [3]) | MIC (Candida parapsilosis; [4]) | MIC (Candida albicans; [3]) | MIC (Candida albicans; [4])
1 | CN1CCN(CCS(=O)(=O)Nc2ccc(CCCCc3ccc(CC(=O)NO)cc3)cc2)CC1 [Example 52, N-hydroxy-2-(4-(4-(4-(2-(4-methylpiperazin-1-yl)ethylsulfonamido)phenyl)butyl)phenyl)acetamide] | > 0.563 | > 0.625 | > 0.500 | > 0.516 | > 0.531 | > 0.313 | > 16 µg/mL | > 16 µg/mL |  |  |  | 16 µg/mL | 16 µg/mL | 8 µg/mL | 8 µg/mL (≈ 16.4 µM) | > 64 µg/mL | > 64 µg/mL | > 64 µg/mL | > 64 µg/mL | > 64 µg/mL
2 | O=C(Cc1ccc(CCCCc2cccc(NS(=O)(=O)CCN3CCOCC3)c2)cc1)NO [Example 53, N-hydroxy-2-(4-(4-(3-(2-morpholinoethylsulfona-mido)phenyl)butyl)phenyl)acetamide] | 0.313 | 0.250 | 0.375 | 0.266 | 0.156 | 0.188 | 16 µg/mL | 16 µg/mL | (¼x) | (⅛x) | (⅛x) | 4 µg/mL | 2 µg/mL | 2 µg/mL | 16 µg/mL (≈ 33.6 µM) | 32 µg/mL (≈ 67.3 µM) | > 64 µg/mL | > 64 µg/mL | > 64 µg/mL | > 64 µg/mL
3 | O=C(Cc1cnc(CCCCc2ccccc2)s1)NO [Example 2, N-hydroxy-2-(2-(4-phenylbutyl)thiazol-5-yl)acetamide] | 0.375 | 0.500 | 0.625 | 0.266 | 0.281 | 0.188 | 16 µg/mL | 16 µg/mL | (¼x) | (¼x) | (⅛x) | 4 µg/mL | 4 µg/mL | 2 µg/mL | > 64 µg/mL | > 64 µg/mL | 64 µg/mL (≈ 220 µM) | 64 µg/mL (≈ 220 µM) | 64 µg/mL (≈ 220 µM) | 64 µg/mL (≈ 220 µM)

The next compounds have a lower MIC (C. glabrata; [1]) than those just listed; values first:

Row | FICI of combination resulting in fluconazole MIC of: 2 ug/mL (C. glabrata; C. glabrata) | FICI of combination resulting in fluconazole MIC of: 4 ug/mL (C. glabrata; C. glabrata) | FICI of combination resulting in fluconazole MIC of: 8 ug/mL (C. glabrata; C. glabrata) | FICI of combination resulting in fluconazole MIC of: 2 ug/mL (value in parenthesis) (C. glabrata; C. glabrata) | FICI of combination resulting in fluconazole MIC of: 4 ug/mL (value in parenthesis) (C. glabrata; C. glabrata) | FICI of combination resulting in fluconazole MIC of: 8 ug/mL (value in parenthesis) (C. glabrata; C. glabrata) | MIC (C. glabrata; [1]) | MIC (C. glabrata; [2]) | Multiple of compound MIC to synergize fluconazole MIC to 2 ug/mL (C. glabrata) | Multiple of compound MIC to synergize fluconazole MIC to 4 ug/mL (C. glabrata) | Multiple of compound MIC to synergize fluconazole MIC to 8 ug/mL (C. glabrata) | Concentration of Methylgene compound to synergize fluconazole MIC to 2 ug/mL (C. glabrata; C. glabrata) | Concentration of Methylgene compound to synergize fluconazole MIC to 4 ug/mL (C. glabrata; C. glabrata) | Concentration of Methylgene compound to synergize fluconazole MIC to 8 ug/mL (C. glabrata; C. glabrata) | MIC (Candida glabrata; [3]) | MIC (Candida glabrata; [4]) | MIC (Candida parapsilosis; [3]) | MIC (Candida parapsilosis; [4]) | MIC (Candida albicans; [3]) | MIC (Candida albicans; [4]) | Compound
4 | 0.375 | 0.500 | 0.625 | 0.266 | 0.281 | 0.188 | 4 µg/mL | 4 µg/mL | (¼x) | (¼x) | (⅛x) | 1 µg/mL | 1 µg/mL | 0.5 µg/mL | 64 µg/mL (≈ 124 µM) | > 64 µg/mL | > 64 µg/mL | > 64 µg/mL | > 64 µg/mL | > 64 µg/mL | COCCOCCOCCOCCC(=O)Nc1ccc(CCCCc2ccc(CC(=O)NO)cc2)cc1 [Example 37, N-(4-(4-(4-(2-(hydroxyamino)-2-oxoethyl)phenyl)butyl)phenyl)-2,5,8,11-tetraoxatetradecan-14-amide]
5 | 0.563 | 0.375 | 0.500 | 0.516 | 0.281 | 0.313 | 1 µg/mL | 1 µg/mL | (½x) | (¼x) | (¼x) | 0.5 µg/mL | 0.25 µg/mL | 0.25 µg/mL | 2 µg/mL (≈ 3.91 µM) | 2 µg/mL (≈ 3.91 µM) | > 8 µg/mL | > 8 µg/mL | > 8 µg/mL | > 8 µg/mL | O=C(Cc1ccc(CCCCc2ccc(C(=O)N3CCN(C/C=C/c4ccccc4)CC3)cc2)cc1)NO [Example 20, (E)-2-(4-(4-(4-(4-cinnamylpiperazine-1-carbonyl)phenyl)butyl)phenyl)-N-hydroxyacetamide]
6 | 0.625 | 0.490 | 0.620 | 0.516 | 0.271 | 0.183 | 0.5 µg/mL | 0.5 µg/mL | (½x) | (¼x) | (⅛x) | 0.25 µg/mL | 0.12 µg/mL | 0.06 µg/mL | 0.5 µg/mL (≈ 1.6 µM) | > 4 µg/mL | 1 µg/mL (≈ 3.19 µM) | 1 µg/mL (≈ 3.19 µM) | 1 µg/mL (≈ 3.19 µM) | 1 µg/mL (≈ 3.19 µM) | COc1ccc(CCCCc2ccc(CC(=O)NO)cc2)cc1 [Example 9, N-hydroxy-2-(4-(4-(4-methoxyphenyl)butyl)phenyl)acetamide]
